The results in this text go back to ChEMBL document CHEMBL4004876, “Preliminary SAR on indole-3-carbinol and related fragments reveals a novel anticancer lead compound against resistant glioblastoma cells” (Bioorg Med Chem Lett, 2017).

The subject of experiment [1] is U-251. The experiment can be described thus: Cytotoxicity against human U251 cells assessed as decrease in cell proliferation after 72 hrs by SRB assay. Type of experiment: functional, cell-based. To be noted: U-251, 72 h. A general note: The SRB assay estimates cell density from bound dye.
The nature of experiment [2]: Cytotoxicity against human IN1528 cells assessed as decrease in cell proliferation after 72 hrs by SRB assay. Type of experiment: functional, cell-based. To be noted: IN1528, 72 h.
Experiment [3] in a line: Cytotoxicity against human IN1760 cells assessed as decrease in cell proliferation after 72 hrs by SRB assay. To be noted: IN1760, 72 h. Type of experiment: functional, cell-based.
Experiment [4] is described as follows: Cytotoxicity against human U87 cells assessed as decrease in cell proliferation after 72 hrs by SRB assay. Type of experiment: functional, cell-based, U-87MG ATCC. To be noted: U-87 MG.
The nature of experiment [5]: Cytotoxicity against human IN1472 cells assessed as decrease in cell proliferation after 72 hrs by SRB assay. Type of experiment: functional, cell-based. The conditions noted are these: IN1472, 72 h.

What is called pEC50 is the negative decadic logarithm of the EC50, by convention in mol/L.

pEC50: −log10 of the molar value.

With `CC(=O)n1cc(CO)c2ccccc21`, the pEC50 is 2.75 in experiment [1], 2.24 in experiment [2] and < 2.00 in experiment [3].

Take `CC(=O)n1c(-c2ccccc2)c(CO)c2ccccc21`: the pEC50 was 3.22 in experiment [1], < 2.00 in experiment [2] and < 2.00 in experiment [3].

On to `Cc1ccc(S(=O)(=O)n2cc(CO)c3ccccc32)cc1`, for which the results for the pEC50 in experiment [1], in experiment [2] and in experiment [3] were 3.85, 3.36 and 3.19, respectively.

Consider `OCc1csc2ccccc12`, for which the pEC50 is 2.91 in experiment [1], 2.40 in experiment [2] and 2.97 in experiment [3].

In the case of `c1ccc(-c2[nH]c3ccccc3c2Cc2c(-c3ccccc3)[nH]c3ccccc23)cc1`, the results for the pEC50 in experiment [1], in experiment [2] and in experiment [3] were 4.30, 3.57 and 4.30, respectively.

In the case of `OCCc1c(-c2ccccc2)[nH]c2ccccc12`, the pEC50 in experiment [1] is 3.60; in experiment [2] it was 5.40; in experiment [4] it was 3.96; in experiment [3], 3.48; in experiment [5], 3.46.

In the case of `OCc1c(-c2ccccc2)[nH]c2ccccc12` [(2-PHENYL-1H-INDOL-3-YL)METHANOL], the pEC50 was 3.89 in experiment [1]; 5.00 in experiment [2]; 4.52 in experiment [4]; 2.84 in experiment [3]; 3.32 in experiment [5].

For the compound `c1ccc2c(Cc3c[nH]c4ccccc34)c[nH]c2c1` [ARUNDINE], the negative-log EC50 (pEC50) in experiment [1] is 3.55; in experiment [2], 3.36; in experiment [3], 3.64.

For `OCc1c[nH]c2ccccc12` [INDOLE-3-CARBINOL], the pEC50 in experiment [1] was 3.41; in experiment [2], 3.92; in experiment [4], 3.54; in experiment [3], 2.80; in experiment [5], 3.02.

As for `OCCc1c[nH]c2ccccc12` [TRYPTOPHOL], the pEC50 in experiment [1] was 2.91; in experiment [2], 2.76; in experiment [4], 3.24; in experiment [3], 2.34; in experiment [5], 2.71.
